# Residues, ends and D or L forms follow the SMILES beside them. *: point of attachment. ACC = NC(=O)Cc1cc(=O)oc2cc(N*)ccc12
# Experiments:
# Assay type in all cases: biochemical
# hepsin [1] = target: T1, hepsin (Homo sapiens, UniProt P05981); assay: P1 substrate specificity using Ac-Ala-Arg-Leu-P1-ACC individual substrate library, hepsin; conditions: substrate 5 μM; best amino acid set to 100%
# T1 construct: purchased R&D Systems 4776-SE-010
# Method: (§1) Recombinant human hepsin (10 μg in 20 uL, 4776-SE-010, R&D Systems) was added to the 100 μL of activation buffer (0.1 M Tris, 0.15 M NaCl, 0.01 M CaCl2, 0.05% TRITON-X, pH=8.0) and incubated at 37° C. for 24 hours (hepsin concentration in activation buffer 2 μM). Once activated hepsin was diluted in assay buffer (0.05 M Tris, pH=9.0) to the final concentration of 4 nM and incubated at 37° C. for 15 minutes before added to a substrate.
# (§2) The protocol for both enzymes activation and incubation are as the same as in HyCoSuL screening. The P1 individual substrate library was used at the final concentration of 5 μM. The total time of the assay was 30 min, however only linear portions of the progress curve (5-15 minutes) were used for velocity (RFU/s) calculations. Each screening for hepsin either HGFA was repeated 3-times and the average value for each measurement was used to create the substrate specificity matrix.
# HGFA [2] = target: T2, HGFA (Homo sapiens, UniProt Q04756); assay: P1 substrate specificity using Ac-Ala-Arg-Leu-P1-ACC individual substrate library, HGFA; conditions: substrate 5 μM; best amino acid set to 100%
# T2 sequence (Q04756 408-655 limits assumed): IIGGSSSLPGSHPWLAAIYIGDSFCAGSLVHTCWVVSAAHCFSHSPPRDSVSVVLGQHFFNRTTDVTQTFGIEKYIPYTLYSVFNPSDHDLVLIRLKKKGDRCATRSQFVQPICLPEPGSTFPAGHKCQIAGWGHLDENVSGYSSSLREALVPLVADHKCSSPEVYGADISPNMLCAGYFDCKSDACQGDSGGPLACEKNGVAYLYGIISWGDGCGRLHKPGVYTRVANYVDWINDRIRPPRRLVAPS
# T2 sequence (Q04756 373-407 partner limits assumed): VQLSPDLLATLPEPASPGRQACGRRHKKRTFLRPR
# Method: (§3) HFGA enzyme was diluted in the assay buffer (0.15 M NaCl, 0.025 M Tris, 0.005 M CaCl2, pH=8.0) to the final concentration of 10-20 nM (depending of sublibrary) and incubated at 25° C. for 30 minutes before added to a substrate.
# as §2
# hepsin [3] = target: T1, hepsin; assay: P4-P2 substrate specificity using HyCoSuL, hepsin; set-up: concentration or dose not given beside the values; conditions: HyCoSuL substrate library; for P2 Position % Activity Hepsin: amino acid fixed at P2 position; for P3 Position % Activity Hepsin: amino acid fixed at P3 position; for P4 Position % Activity Hepsin: amino acid fixed at P4 position
# Method: (§4) Each of the P4, P3, and P2 sublibraries were screened at the 100 μM concentration with hepsin either HGFA in a 100 μL final volume per well (99 μL of protease in buffer+1 μL of 10 mM substrates mixture). The total time of the assay was 30 minutes, however only linear portions of the progress curve (5-15 minutes) were used for velocity (RFU/s) calculations. Each sublibrary screening was repeated at least 3-times and the average value calculated from each measurement was used to create the substrate specificity matrix—the best recognized amino acid in each position was set to 100%, and other amino acids were adjusted accordingly.
# as §1
# HGFA [4] = target: T2, HGFA; assay: P4-P2 substrate specificity using HyCoSuL, HGFA; set-up: P3 Position % Activity HGFA / P2 Position % Activity HGFA: concentration or dose not given beside the values; P4 Position % Activity HGFA: tested at 100 µM; conditions: HyCoSuL substrate library; for P2 Position % Activity HGFA: amino acid fixed at P2 position; for P3 Position % Activity HGFA: amino acid fixed at P3 position; for P4 Position % Activity HGFA: amino acid fixed at P4 position
# Method: as §4, §3
# T1 sequence (P05981 163-417 limits assumed): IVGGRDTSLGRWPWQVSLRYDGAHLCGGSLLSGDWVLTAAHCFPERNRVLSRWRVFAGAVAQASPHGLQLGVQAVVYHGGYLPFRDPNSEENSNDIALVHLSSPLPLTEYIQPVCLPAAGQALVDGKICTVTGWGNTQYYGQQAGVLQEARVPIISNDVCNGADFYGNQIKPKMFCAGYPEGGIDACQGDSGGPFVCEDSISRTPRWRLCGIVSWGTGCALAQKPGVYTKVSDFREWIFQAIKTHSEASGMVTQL
# T1 sequence (P05981 45-162 partner limits assumed): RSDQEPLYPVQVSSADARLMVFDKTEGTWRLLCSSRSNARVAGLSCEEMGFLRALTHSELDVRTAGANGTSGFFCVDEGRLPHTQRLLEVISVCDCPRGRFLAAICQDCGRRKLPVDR
Molecule,"% activity, P1 position, Hepsin (hepsin [1]) [%]","% activity, P1 position, HGFA (HGFA [2]) [%]",P2 Position % Activity Hepsin (hepsin [3]) [%],P3 Position % Activity Hepsin (hepsin [3]) [%],P4 Position % Activity Hepsin (hepsin [3]) [%],P2 Position % Activity HGFA (HGFA [4]) [%],P3 Position % Activity HGFA (HGFA [4]) [%],P4 Position % Activity HGFA (HGFA [4]) [%]
CC(=O)N[C@@H](C)C(=O)N[C@@H](CCCNC(=N)N)C(=O)N[C@@H](CC(C)C)C(=O)N[C@@H](CCCNC(=N)N)C(=O)Nc1ccc2c(CC(N)=O)cc(=O)oc2c1 [Ac-Ala-Arg-Leu-Arg-ACC] (Ac-ARLR-{ACC}),100.00,100.00,57.23,70.75,80.32,2.08,43.98,23.62
D-Ala,0.00,0.00,0.00,48.09,18.44,0.00,9.84,7.11
D-Asn,0.00,0.00,0.00,38.75,18.48,0.00,15.16,7.38
D-Asp,0.05,0.00,0.00,17.18,1.98,0.00,5.37,2.25
D-Gln,0.00,0.00,0.00,97.80,20.13,0.00,13.84,8.03
D-Glu,0.00,0.00,0.00,34.55,2.98,0.00,3.61,2.62
D-Leu,0.00,0.00,0.00,20.14,24.76,0.00,7.08,10.56
D-Lys,0.23,0.00,0.00,64.56,49.84,0.00,21.11,17.66
D-Phe,,0.00,0.00,24.92,13.15,0.00,15.22,8.13
D-Pro,1.08,0.00,0.00,38.88,20.45,0.00,4.96,10.30
D-Ser,0.02,0.00,11.55,54.84,21.84,0.00,10.86,7.94
D-Thr,0.24,0.00,0.00,36.69,25.74,0.00,6.45,8.61
D-Trp,0.50,0.00,0.00,24.90,1.48,0.00,87.59,7.65
D-Tyr,0.23,0.00,0.00,29.94,12.66,0.00,17.32,10.09
L-Cit,0.42,0.00,32.27,29.53,36.68,6.32,13.41,6.44
L-Dap,0.03,0.00,10.01,48.71,35.65,1.49,24.27,13.31
L-Hyp,0.00,0.00,38.67,4.70,37.81,3.95,2.18,10.66
L-Met(O),0.00,0.00,11.40,68.16,22.86,1.68,16.63,6.64
L-Nle,0.07,0.00,62.04,24.09,40.93,45.52,19.15,11.76
L-Nva,0.14,0.00,58.40,25.85,41.99,39.80,17.60,11.78
L-Orn,0.00,0.00,78.48,79.70,84.52,0.00,54.04,20.23
L-hArg,0.24,0.00,57.96,47.00,56.24,5.83,100.00,22.07
